# Legend:
# [1] = target: Glycophorin A (GpA) peptides (Homo sapiens, UniProt P02724); settings: 10-50% (mol/mol) admixed to DSPC vesicles; versus native phospholipids
# Experimental: The change of the Frster resonance energy transfer (FRET) of fluorescence-labelled peptides with α helical trans-membrane structure in a double lipid layer can be used for determination of the concentration of monomeric and dimeric trans-membrane helices and for quantitative determination of helix-helix interactions.
# FRET measurements were carried out with fluorescence-marked Glycophorin A (GpA) peptides. The transmembrane GpA forms dimers, whereby the energy transfer can be measured. 5-carboxyfluorescein and tetramethyl-6-carboxyrhodamine were used as chromophores.
# Degree of dimerization of the model protein was measured in a direct comparison between native phospholipids and the corresponding phospholipids with a nitrated alkyl chain for the given concentrations of phospholipids (10-50%, mol/mol) admixed to the DSPC vesicles.
# For determination of the dimerization, the peptides of FL GpAwt and TAMRA GpAwt were weighed and dissolved in TFE. The measurements were carried out on a fluorescence spectrometer of type Aminco Bowman series 2 (Thermo Spectronic).
# [2] = system: HeLa, HUVEC and L929 fibroblast; assay: cells; format: cell-based; settings: tested concentrations 10 μmol to 1 mmol; EC50 could not be calculated
# Experimental: (§1) Physiologically occurring phospholipids can be taken up by virtually all cell lines in large quantities. It is known that phospholipids that contain non-physiologically occurring fatty acid residues can cause cell lyses or death. Three cell lines (HeLa, HUVEC and L929 fibroblast) were cultured in a suitable culture medium of 5% FCS at 37° C. and 5% CO2 concentrations to a subconfluent concentration of 1.5×10^5 cells.
# SOPC, DOPC, POPC, ONOPC, PNLPC, and the free fatty acids of OA, LA, NOOA, and NOLA were dissolved in 0.5% DMSO. […] Cell cultures were incubated for 24 h and 48 h. Thereafter, the culture medium was removed and the cells washed twice. Following this, cells suspensions were given in four vials to perform the following analysis:
# For the determination of viability, phenol red was added to the suspended cells. After 4 h, the medium was renewed and 10 μl of the MTT solution was added. The cells were cultured for 4 hours, and then a 10% SDS solution was pipetted. After 24 h, absorption of formazan crystals was measured at 500 nm using a power wave X (bio-tek instruments, Inc., USA). For the quantitative comparison of toxicity, the EC50 was determined.
# [3] = Transisomerization of unsaturated fatty acids in coatings on balloon catheters (FTIR); format: physicochemical
# Source text: The natural phospholipids POPC and SLPE, as well as the analogous nitrated phospholipids as shown in example C(PNOPC) and […]), as well as the phospholipids according to examples […], and S as a mono substance and as a combination of the native phospholipids and the corresponding nitro-carboxylic acid (s)-containing phospholipids mixed in a ratio of 1:1 were used for this investigation. Balloon catheters were coated by means of the Langmuir-Schaefer procedure where the balloon segment was aligned longitudinally and coaxial to the solution surface, dipping into the liquid for approx. 1 mm over the entire length. Then the catheter was slowly rotated around its axis 5 times. […] The solution was cooled and given to the coating solution then. In case of incomplete dissolution of the phospholipids or if they separated when cooled, DMSO was added at a concentration of up to 20 vol.-%, preferably up to 10 vol.-%. After coating, the catheters were vacuum dried for 8 hours in order to remove residual solvent. The abrasion or loss of coating layers was determined by weighing the catheter before and after coating as well as after the mechanical stability test in the tubing system as described above using a high precision balance. In order to examine the long-term stability of the coating, catheters coated with phospholipids were sealed with polyethylene glycol 1000 (Roth, Germany). For that purpose PEG 1000 was melted and mixed with a 10% ethanol solution at 50° C. A portion of the phospholipid-coated balloon catheter was coated by means of dip-coating in this PEG solution at 50° C., and dried thereafter for 8 hours. Stability of cis-conformity of unsaturated fatty acids of the phospholipids investigated was determined after heat treatment at 60° C. for three hours in a heating cabinet. After 24 hours and after 2 months the phospholipids coated on the balloon surface were detached and analyzed. Detachment was carried out in 50 ml of a chloroform:methanol mixture (3:1, v: v). A 10 μl aliquot was used for a FTIR spectroscopy. For this purpose the samples were dropped on a ZnSe ATR crystal and then the solvent was evaporated. Degree of transisomerization was determined using the integral of intensity of proton resonance in comparison to that measured from a cis configuration of the reference substances. Measurements were performed 24 hours after coating, heat treatment and after 2 months of storage at 25° C. under sterile room air conditions.
# [4] = system: HeLa, HUVEC and L929 fibroblast; assay: Volumetric measurement of cells (Coulter counter); format: cell-based; settings: time-dependent increase after incubation
# Experimental: as §1
# (§2) SOPC, DOPC, POPC, ONOPC, PNLPC, and the free fatty acids of OA, LA, NOOA, and NOLA were dissolved in 0.5% DMSO. Experiments were performed also with nitro-carboxylic acid-containing phospholipids according to examples N15-N20, G, O3, O5, P2, P5, P8, P9, P11 and Q. PL prepared as aqueous suspensions were added the culture flasks in order to achieve PL concentrations in the culture medium from 10 μmol to 1 mmol. Cell cultures were incubated for 24 h and 48 h. Thereafter, the culture medium was removed and the cells washed twice. Following this, cells suspensions were given in four vials to perform the following analysis:
# Volumetric measurement of cells was done in a Histopenz (Sigma) solution with an effective NaCl concentration of 0.9% (approximately 290 mOsm) heated to 37° C. in which the cells were suspended; thereafter the solution was sonified for 2 minutes. Measurements were done using a Coulter counter Z2.
# [5] = system: HeLa, HUVEC and L929 fibroblast; assay: Cell viability with the live/dead assay; format: cell-based
# Experimental: as §1, §2
# Studies of cell viability were carried out with the live/dead assay (Molecular Probes). For this purpose, the cells were washed twice with PBS solution and then seeded into a culture medium. Incubation with the staining solution (in 0.1% DMSO) was carried out over 30 minutes in the dark. The viability analyses were performed using fluorescence microscopy.
# ovarian tissue strips = assay: Cryopreservation of ovarian tissue strips: intact follicles; settings: liquid nitrogen 14 days, cultured 14 days
# Experimental: Ovar ectomy was performed in female sheep; resected tissues were cut into 60 ovarian tissue strips. The ovarian strips were either cultured directly (n=4) or prepared with a usual solution for vitrification (VS group; Vitrification Kit, Sage, USA) or incubated with nitrated PLs (NPL group). For this purpose, the tissue strips were bathed in an equibrilation solution (ART-8025-A) which consisted of MOPS-buffered amino acids and gentamicin sulfate (10 mg/l), and 7.5% (v/v) of each DMSO and ethylene glycol and 12 mg/ml human serum albumin for 30 minutes. Thereafter the strips of the VS group were placed in the vitrification solution (ART-8025-B), which is a MOPS-buffered solution containing amino acids and gentamicin sulfate, that contain 15% (v/v) each DMSO and ethylenglycol, 12 mg/ml human albumin and 0.6 M sucrose. The strips of the NPL group were placed in a solution containing 25% (v/v) nitrated PL SNOPC or PNLPC in a PBS-buffered 1% DMSO solution containing 5% human albumin for 60 minutes. The treated tissue strips were then immersed into liquid nitrogen and kept here for 14 days. Then removal and warming of the tissue pieces was performed in AIM-V medium (Gibco, Invitrogen) in a sterile culture dish, first up to 5° C. within 20 minutes, then heated further in a water bath up to 37° C., within the following 60 minutes. The culture medium was replaced and specimens cultured for 14 days. After this, the tissue pieces were fixed, embedded in paraffin and cut, followed by histological examination. […] The total number of intact follicles in the control group was taken as a reference to the number of follicles in the cryopreserved groups.
# The culture medium has been exchanged by every 2nd day; samples for hormone analysis were taken and frozen at that time. Determination of 17 β-estradiol and progesterone were performed with a radio-immuno assay (diagnostic systems laboratories, USA).
# [6] = system: human umbilical venous endothelial cells (HUVEC); assay: Endothelial cell homing on coated cobalt-chromium metal grids; format: cell-based; settings: days 3, 7 and 14
# Experimental: To investigate the cell homing of endothelial cells onto phospholipid-coated artificial surfaces, metal grids with a cobalt-chromium alloy such as has been described in example 2 were coated. Coatings were performed with nitro-carboxylic acid-containing phosphatidylcholine according to the examples N2-N6 and O6. These were special product mixtures of different esterified 1,2-di(nitro linoleoyl)-sn-glycero-3-phosphatidylcholines (N2), from different esterified 1,2-di(nitro arachidonoyl)-sn-glycero-3-phosphatidylcholines (N3), from different esterified 1,2-di(nitroarachidonoyl)-sn-glycero-3-phosphatidylcholines (N4), different esterified 1,2-di(nitro-γ-linolenoyl)-sn-glycero-3-phosphatidylcholines (N5) or different esterified 1,2-di(nitro-DHA)-sn-glycero-3-phosphatidylcholines (N6) and mixture of 1-palmitoyl-2-(10-hydroxy-9-nitro-α-linolenoyl)-sn-3-glycero-phosphocholine and 1-palmitoyl-2-(9-hydroxy-10-nitro-α-linolenoyl)-sn-3-glycero-phosphocholine (06). Uncoated metal grids served as controls. The grids were placed in a culture dish containing a gel matrix on which human umbilical venous endothelial cells (HUVEC) were grown to confluence. The culture media consisted of 5% FCS, and was changed every second day. Cultivation was performed according to standard procedures. The culture dishes were carefully washed superficially several times after 3, 7, and 14 days with saline. […]
# sciatic nerve = assay: Viability of cryopreserved nerve grafts (Annexin-V staining, FACS); format: cell-based, rats; settings: 100 mmolar solution 1 hour; −30° C. 72 hours
# Experimental: The sciatic nerve was prepared and sectured in anesthetized rats. The nerve pieces were freed from connective tissue and divided into 3 parts. Specimens were placed in culture DMEM medium containing low a concentration of glucose (1 g/L) with L-glutamine (PAA, Pasching Austria) for 24 hours. […] Nerve specimens from the same animals that received no pretreatment served as controls. After incubation, the specimens were cultured for 24 hours. In a further control group, specimens were cryopreserved without any pretreatment. The specimens were covered with a sterile gauze pad moistened with culture medium. Thereafter the temperature was gradually cooled to −30° C. After 72 hours, the nerve pieces were gradually rewarmed to 37° C. After this, renewed culturing was done for 48 hours. The nerve pieces were dissected enzymatically then (collagenase A and D, Roche, Mannheim, Germany) followed by a mechanical separation through multiple uptake and release in a glass pipette. The isolated cells were washed and marked with a living/death staining (Annexin-V-Fluos staining Kit, Roche Diagnostics, Mannheim, Germany) and quantified using FACS analysis. The number of living cells identified was set in relation to the total cells count.
# Sequence of Glycophorin A (GpA) peptides (P02724 92-114 limits assumed, species assumed): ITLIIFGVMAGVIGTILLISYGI
molecule,measurement,setting,value
"CCCCC/C=C\C/C=C(\CCCCCCCC(=O)O[C@H](COC(=O)CCCCCCCCCCCCCCCCC)COP(=O)([O-])OCC[N+](C)(C)C)[N+](=O)[O-] [Example P13, 1-stearoyl-2-(E-9-nitrolinoleoyl)-sn-3-glycerophosphocholine]",degree of dimerization of the model membrane protein,[1],significantly greater reduction of dimerization
"CCCCCCCC/C=C\CCCCCCCC(=O)O[C@H](COC(=O)CCCCCCCCCCCCCCC)COP(=O)([O-])OCC[N+](C)(C)C [POPC, 1-Palmitoyl-2-oleoyl-sn-glycero-3-PC, reference compound]",viability as quantified by the MTT assay,[2],only slightly decreased
same,proportion of trans-fatty acids,"[3]; after heat treatment (60° C., three hours)",80%
same,degree of transisomerization,[3]; coatings after 2 months,95%
same,degree of transisomerization,"[3]; top coating with PEG, after 2 month",86%
same,cell volume (increase in size to),[4],160%
same,viability according to the live/dead staining,[5],high rate of viability
"1,2-di-(nitrolinoleoyl)-sn-glycero-3-phosphatidylcholines [Example N2]",rate of intact follicles relative to the control group,ovarian tissue strips,94%
same,endothelial cell coverage and growth on coated struts,[6],slight tendency for a stronger growth of cells
same,proportion of living cells relative to non-frozen control,sciatic nerve,79%
"1,2-di-(nitro-DHA)-sn-glycero-3-phosphatidylcholines [Example N6]",rate of intact follicles relative to the control group,ovarian tissue strips,92%
same,endothelial cell coverage and growth on coated struts,[6],slight tendency for a stronger growth of cells
same,proportion of living cells relative to non-frozen control,sciatic nerve,72%

# Source: patent US20140099354A1, “BIOPASSIVATING MEMBRANE STABILIZATION BY MEANS OF NITROCARBOXYLIC ACID-CONTAINING PHOSPHOLIPIDS IN PREPARATIONS AND COATINGS” (priority 2011, published 2014)
